# Experimental data from US20230331792A1, “NEW MULTI-FUNCTIONAL OLIGOPEPTIDES” (ENLITISA (SHANGHAI) PHARMACEUTICAL CO., LTD., priority 2019, published 2023).
# Square brackets hold non-standard residues; d marks the D form. Ends that are not written are not given here. Dopa = N[C@@H](Cc1ccc(O)c(O)c1)C(=O)O; Hyp = O=C(O)[C@@H]1C[C@@H](O)CN1
# Experiments:
# Assay type in all cases: in vivo
# C57BL/6 mice = test: Acute wound model (full-thickness skin wound); settings: topical 50 μL/wound once daily Day 0 to Day 7; 1.65, 16.45, 164.5 μg/wound/day
# Method: 6-8 weeks old male C57BL/6 mice were supplied by Changzhou Cvens Experimental Animal Co. Ltd. (Changzhou, Jiangsu Province, China). Prior to any experiments being conducted, mice were housed under standardized conditions at a constant temperature of 22±2° C., with alternating 12-hour periods of light and darkness, and were fed on a standard mouse diet with water, for about a week.
# General anesthesia was induced using intraperitoneal administration of 3% chloral hydrate (1 mL/10 g of body weight). The hair on the back was shaved by a baby hair shaver and depilated with cream. The skin area was wiped and sterilized with 75% alcohol twice.
# A 12 mm EMS skin biopsy punch (Electron Microscopy Sciences, P.O. Box 550, 1560 Industry Road, Hatfield, PA 19440) was used to make two round wounds on the midline of the back. The two wounds were tangential and the skin between the circles was cut along the upper and lower tangents. Scissors were used to trim the wound. The full thickness of skin was removed to reach the fascia. The wound was oval shape and was left open without suture. […]
# Photographs were taken of each wound every other day from Day 0. Photos were scanned into a computer, and wound areas calculated using ImageJ image analysis software (National Institute of Health).
# The unhealed wound area was expressed as a percentage of the original wound area: […]
# db/db mice = test: Diabetic wound model, VEGF and TGF-β1 content in wound tissues; settings: topical once daily; 1.65, 16.45, 164.5 μg/wound/day; vs model group
# Method: 8 to 12 week old male db/db mice (C57BL/KsJ-db/db, with a body weight of 35-45 g/mouse) supplied by Changzhou Cvens Experimental Animal Co. Ltd. Prior to any experiments being conducted, mice were housed under standardized conditions at a constant temperature of 22±2° C., with alternating 12-hour periods of light and darkness, and were fed on a standard mouse diet with water, for about a week.
# General anesthesia was induced using intraperitoneal 3% chloral hydrate (Sinopharm Chemical Reagent Co., Ltd.; 1 mL/10 g of body weight). The hair on the back was shaved by a baby hair shaver and depilated with cream. The skin area was wiped and sterilized with 75% alcohol twice.
# An EMS skin biopsy punch with an 18 mm diameter was used to make a round wound on the back. The full thickness of skin was removed, and the depth of the wound reached the fascia. Wounds were left open without a suture.
# The model group was given same amount of normal saline. There were 12 mice in each group apart from the control group, which had 8 mice. The skin pieces taken during wound creation were used as the samples at Day 7 for the control group.
# Recombinant Human Epidermal Growth Factor (rhEGF) was purchased and prepared according to the instructions by the manufacturer. The lyophilized rhEGF powder (100000 IU/vial) was dissolved in 20 mL of normal saline to make a solution with a concentration of 5000 IU/mL. The working dose of rhEGF for this experiment was 1285 IU/wound.
# Compound A and Compound B were dissolved in saline at concentrations indicated in Table 7 below (L=low dose, M=medium dose, H=high dose). 50 μL of each solution was applied to the wound surfaces every day.
# Vascular endothelial growth factor (VEGF) and transforming growth factor-beta 1 (TGF-β1) play prominent roles in wound healing process. VEGF and TGF-β1 are often co-expressed in tissues in which angiogenesis occurs.
# BALB/c mice = test: Mouse ear swelling model (xylene); settings: for Swelling rate: about 0.1 g on right ear 1 h before xylene; for effect on edema caused by inflammation: hydrogels 0.5 and 1 mg/g
# Method: 30 Health male BALB/c mice with 6-8 weeks old and average body weight of 18-25 g were supplied by Changzhou Cvens Experimental Animal Co., Ltd. and housed and cared for about 1 week prior to the experiment. […] The mice were randomly divided into 6 groups as described in Table 8, with 5 mice in each group. Compound A and Compound B were dissolved at concentrations indicated in Table 8 below (L=low dose, M=medium dose, H=high dose).
# All excipients were obtained from Sinopharm Chemical Reagent Co. Ltd. The gels were made with water for injection.
# Dexamethasone acetate cream (Dex cream; 5 mg/10 g (which means that there was 5 mg Dex contained in 10 g of the cream), Fuyuan Pharmaceutical Co., Ltd., Anhui, China) was used as positive control.
# The left ear of each mouse was used as an autologous control. The right ear of each mouse was treated with the above compounds in the stated concentrations (Table 8).
# About 0.1 g of the various gels, and Dex cream were applied to the right ear of mice in each group, both inside and outside. The blank gel base was applied on the ears in the model groups. After 1 hour, 20 μL of xylene (Shanghai Aladdin Bio-Chem Technology Co., Ltd.) was applied to the same ear of each mouse.
# The mice were sacrificed by cervical dislocation 40 minutes after xylene application. The left and right ears were cut off. An EMS skin biopsy punch with a diameter of 8 mm was used to take a piece of the ear from the same site on both ears. The weights were recorded, and the swelling rate was calculated as a percentage according to the following formula:
# (right ear weight−left ear weight)/left ear weight×100
Substance,unhealed wound rate / wound healing (FIG. 1) (C57BL/6 mice),content of TGF-β1 in wound tissues (FIG. 3) (db/db mice),content of VEGF in wound tissues (FIG. 2) (db/db mice),Swelling rate (BALB/c mice; hydrogel 0.5 mg/g (L)) [%],Swelling rate (BALB/c mice; hydrogel 1 mg/g (H)) [%],effect on edema caused by inflammation (BALB/c mice)
{[(Ala-Lys-Pro-Ser-Tyr-Hyp-Hyp-Thr-DOPA-Lys)2-Lys]2-Lys}2-Lys (AKPSY[Hyp][Hyp]T[Dopa]KKKK; also: branched lysine dendrimer {[(peptide)2-Lys]2-Lys}2-Lys) [Compound B],significantly improve wound healing,stimulated the production,stimulated the production,43,38,significantly eliminate the edema caused by inflammation
{[(Dopa-Ala-Lys-Pro-Ser-Tyr-Hyp-Hyp-Thr-Tyr-Lys)2-Lys]2-Lys}2-Lys ([Dopa]AKPSY[Hyp][Hyp]TYKKKK; also: branched lysine dendrimer {[(peptide)2-Lys]2-Lys}2-Lys) [Compound A],significantly improve wound healing,stimulated the production,stimulated the production,63,43,significantly eliminate the edema caused by inflammation
